Test results taken from patent US5817776A, “Amino acid analogs for tumor imaging” (priority 1996, dated 1998).

How the values were obtained:
normal tissue = settings: in vivo; cited from earlier work
[1] = tested on: human astrocyte tumor cells; assay: Binding to human astrocyte tumor cells in a human patient; assay type: in vivo
implanted gliosarcoma = assay: in vivo; settings: for Bone, Mean % Injected Dose/Gram: unfasted male fisher rats, average of 4 rats
Experimental: (§1) In vivo distribution of a compound of the invention, [^18 F]-1-amino-3-fluoro-cyclobutane-1-carboxylic acid (FACBC) was measured in rats having an implanted gliosarcoma. Accumulation in various tissue was measured at 5 min and 60 min post-administration.
(§2) Distribution of Radioactivity in Tissues of Unfasted Male
(§3) Fisher Rats following Intravenous Administration of [^18 F]FACBC

in vivo = settings: rat, in vivo, iv, Mean % Injected Dose/Gram
Experimental: as §1, §2, §3

several tumor types = settings: labeled with carbon-14 or carbon-11, animals, Washburn et al. 1979; cited from earlier work
[2] = tested on: metastatic lesions in the brain; settings: cited from earlier work
[3] = tested on: N-methyl-D-aspartic acid (NMDA) receptor, strychnine-insensitive glycine recognition site; settings: cited from earlier work
[4] = 60 min, intravenous, male fisher rats with implanted gliosarcoma

CSCC[C@H](N)C(=O)O [[^11 C] methionine, methionine]
uptake in normal tissue (in words) (normal tissue): relatively high uptake in normal tissue

NC1(C(=O)O)CC([18F])C1 (stereo not shown) [[^18 F]FACBC, [^18 F]-1-amino-3-fluorocyclobutane-1-carboxylic acid]
binding to human astrocyte tumor cells (in words) [1]: highly specific binding to human astrocyte tumor cells | T/B (tumor to brain ratio) (implanted gliosarcoma; 5 min, intravenous, male fisher rats with implanted gliosarcoma): 5.58 | Bone, Mean % Injected Dose/Gram (implanted gliosarcoma; 5 min, intravenous): 0.52 % Injected Dose/Gram | T/B (tumor to brain ratio) (implanted gliosarcoma; [4]): 6.6 | Tumor (T), Mean % Injected Dose/Gram (implanted gliosarcoma; [4]): 1.72 % Injected Dose/Gram | Bone, Mean % Injected Dose/Gram (implanted gliosarcoma; 60 min, intravenous): 0.38 % Injected Dose/Gram | T/B (tumor to brain ratio) (implanted gliosarcoma; rat, in vivo, iv): 6.61 | stability to in vivo defluorination (bone uptake) (implanted gliosarcoma; rat, in vivo, iv): Uptake by bone was essentially constant over the 60 minutes of exposure, indicating stability of the 2-cyclobutyl group to significant in vivo defluorination | tumor uptake / tumor to brain discrimination (in words) (implanted gliosarcoma; rat, in vivo, iv): preferentially associated with tumor tissue as early as 5 minutes post administration | Brain (B), Mean % Injected Dose/Gram (implanted gliosarcoma; rat, in vivo, iv, 5 min): 0.11 % Injected Dose/Gram | Brain (B), Mean % Injected Dose/Gram (implanted gliosarcoma; rat, in vivo, iv, 1 h): 0.26 % Injected Dose/Gram | tissue uptake at 5 min (in vivo; Blood, 5 min, unfasted male fisher rats, average of 4 rats): 0.58 %ID/g | tissue uptake at 1 h (in vivo; Blood, 60 min, unfasted male fisher rats, average of 4 rats): 0.32 %ID/g | tissue uptake at 5 min (in vivo; Bone, 5 min, unfasted male fisher rats, average of 4 rats): 0.52 %ID/g | tissue uptake at 1 h (in vivo; Bone, 60 min, unfasted male fisher rats, average of 4 rats): 0.38 %ID/g | tissue uptake at 5 min (in vivo; Brain (B)): 0.11 %ID/g | tissue uptake at 1 h (in vivo; Brain (B)): 0.26 %ID/g | tissue uptake at 5 min (in vivo; Heart): 0.7 %ID/g | tissue uptake at 1 h (in vivo; Heart): 0.56 %ID/g | tissue uptake at 5 min (in vivo; Kidney): 1.08 %ID/g | tissue uptake at 1 h (in vivo; Kidney): 0.6 %ID/g | tissue uptake at 5 min (in vivo; Liver): 1.1 %ID/g | tissue uptake at 1 h (in vivo; Liver): 1.7 %ID/g | tissue uptake at 5 min (in vivo; Lung): 1.13 %ID/g | tissue uptake at 1 h (in vivo; Lung): 0.64 %ID/g | tissue uptake at 5 min (in vivo; Muscle): 0.27 %ID/g | tissue uptake at 1 h (in vivo; Muscle): 0.41 %ID/g | tissue uptake at 5 min (in vivo; Spleen): 1.55 %ID/g | tissue uptake at 1 h (in vivo; Spleen): 0.68 %ID/g | tissue uptake at 5 min (in vivo; Testis): 0.25 %ID/g | tissue uptake at 1 h (in vivo; Testis): 0.28 %ID/g | tissue uptake at 5 min (in vivo; Tumor (T), 5 min, male fisher rats with implanted gliosarcoma): 0.61 %ID/g | tissue uptake at 1 h (in vivo; Tumor (T), 60 min, male fisher rats with implanted gliosarcoma): 1.72 %ID/g

NC1(C(=O)O)CCC1 [ACBC, 1-aminocyclobutanecarboxylic acid]
incorporation by tumors (in words) (several tumor types): incorporated preferentially by several tumor types in animals | substrate for protein synthesis in metastatic lesions; normal brain uptake (in words) [2]: selective substrate for protein synthesis in metastatic lesions in the brain with little observable uptake in normal brain tissue | NMDA receptor ligand and antagonist activity (in words) [3]: selective and potent ligand and antagonist
